Measured values reported in the NIST ThermoML archive (doi:10.1021/je050200w).

Assay: xn = mol fraction of the nth substance listed
Details: 101 kPa, Liquid

CCCCCCCCCCO [decan-1-ol] + CCCCCCCCO
Details	mass density, 298.15 K [kg/m3]	mass density, 303.15 K [kg/m3]	mass density, 308.15 K [kg/m3]	mass density, 313.15 K [kg/m3]	viscosity, 298.15 K [mPa·s]	viscosity, 303.15 K [mPa·s]	viscosity, 308.15 K [mPa·s]	viscosity, 313.15 K [mPa·s]
x2 = 0	–	823	819.6	816.3	–	9.561	8	6.831
x2 = 0.0995	–	822.5	819.1	815.6	–	9.231	7.768	6.649
x2 = 0.1998	–	822.1	818.7	815.2	–	8.924	7.492	6.408
x2 = 0.3007	–	821.7	818.3	814.8	–	8.589	7.211	6.189
x2 = 0.4001	–	821.3	817.8	814.4	–	8.213	6.961	5.979
x2 = 0.4996	824.3	820.8	817.4	813.9	9.596	7.898	6.672	5.711
x2 = 0.5988	823.8	820.4	816.9	813.5	9.244	7.57	6.389	5.513
x2 = 0.6998	823.4	820	816.5	813	8.756	7.259	6.143	5.287
x2 = 0.8001	822.8	819.4	815.9	812.4	8.308	6.992	5.851	5.057
x2 = 0.9	822.3	818.9	815.5	812	7.812	6.655	5.653	4.784
